Laboratory results from paper PMC8692498, “Synthesis and multifaceted pharmacological activity of novel quinazoline NHE-1 inhibitors” (Scientific Reports, 2021).

Experiments:
[1] = test system: primary peritoneal macrophages of C57BL/6J mice; assay: Cytotoxicity study (LDH activity in the medium) in peritoneal macrophages; type: cell-based; details: 100 μM, peritoneal macrophages
Protocol: (§1) Peritoneal macrophages (PM) were isolated from the peritoneal exudate of 30 male C57bl/6j mice. To accumulate PM, 1 ml of 3% peptone solution was injected intraperitoneally. After 3 days the mice were euthanized by cervical dislocation. Cells of peritoneal exudate were obtained by aseptically washing the abdominal cavity with 5 ml of sterile Hanks’s solution (+ 4-6 °C) without calcium and magnesium ions. The total number and viability of cells were assessed in a Goryaev counting chamber (Russia) with a 0.4% trypan blue staining (Sigma-Aldrich, USA). The cell concentration was adjusted to 1.0×10^6 cells/ml in DMEM (Gibco) supplemented with 2 mM L-glutamine (Gibco), 10% heat-inactivated fetal bovine serum (BioClot, Germany), 100 U/ml penicillin and […] streptomycin (Gibco) and plated 200 μl/well in 96-well transparent plates (SPL Life Sciences Co., Ltd., Korea). It was left for 2 h at 37°C in a humidified atmosphere with 5% CO2, after which the wells were washed to remove non-adherent cells. After 24 hours of incubation, 20 μl of the supernatant was removed and 20 μl of solutions of test compounds were added 30 min before E. coli O127:B8 LPS (100 ng/ml final concentration). Experiments were run in 3 independent replicates.
(§2) The activity of lactate dehydrogenase (LDH) in a cell culture medium served as a marker of membrane permeability and cell death. Aliquotes of supernatants were taken after 24 h of inoculation with test compounds, mixed with 250 μl of […] NADH solution in 54 mM phosphate buffered saline (pH 7.5). Then, 25 μl of a 6.48 mM pyruvate solution was added to the mixture. The optical density was followed at a wavelength of 340 nm for 20 min. Conversion of optical density into cell viability was carried out according to a standard curve (DMSO-treated cells as 100% and 0.01% Triton X-100-treated cells as 0% viable cells).

[2] = as above; type: cell-based; details: male, C57BL/6J, mouse, primary peritoneal macrophages; murine peritoneal macrophages, LDH
Protocol: as §1, §2

[3] = test system: primary peritoneal macrophages of C57BL/6J mice; assay: Nitric oxide synthesis (nitrite, Griess reagent) in LPS-stimulated peritoneal macrophages; type: cell-based; details: 100 μM
Protocol: as §1
The accumulation of nitrite anion (a stable end product of NO decomposition produced by iNOS) in supernatants was determined using a standard Griess reagent. Briefly, 50 μl of supernatants collected 22 hours after incubation of PM with test and control compounds were mixed with 50 μl of 1% sulfonamide in 2.5% H3PO4 and 50 μl of 0.1% N-(1-naphthyl) ethylenediamine in 2,5% H3PO4. After incubation at 23 °C for 10 min in an orbital shaker, the optical density was determined at a wavelength of 550 nm with a microplate reader Infinite M200 PRO (Tecan, Austria).

NHE-1 = molecular target: T1, NHE-1 (Oryctolagus cuniculus, UniProt P23791); assay: NHE-1 inhibition assay on rabbit platelets (platelet shape change after acidification with sodium propionate, laser aggregometer); type: cell-based
T1 construct: endogenous in cells; host or cells: rabbit platelets in platelet-rich plasma (male rabbits)
Protocol: Evaluation of NHE-1 inhibition was carried out on rabbit platelets by the known method[39],[40]. The experiments were carried out on 15 male rabbits weighing 3.0-4.0 kg. Platelet-rich plasma (PRP) was obtained by centrifuging blood with 3.8% sodium citrate (1:10) at 1000 rpm for 12 min (Multi centrifuge CM 6M, Latvia). Platelet shapeshifting due to acidification was followed with a laser aggregometer BIOLA-220 LA (Russia). Test compounds (10 μl, 10 nM final concentration) were added to 200 μl of PRP 5 min in a cuvette before the addition of sodium propionate solution, incubated with constant stirring using a magnetic stirrer (800 rpm, 37 °C). To control samples for NHE-1 activation, a buffer solution containing sodium propionate was added to 200 μL of PRP (600 μL, 135 mM sodium propionate, 20 mM HEPES, 1 mM CaCI2, 1 mM MgCI2, 10 mM glucose; pH 6.7). The change in light transmission at pH 7.4, 37 °C was monitored in a Krebs solution (600 μL, 120 mM NaCl, 4.8 mM KCl, 1.2 mM KH2PO4, 2.5 mM MgSO4, 25 mM NaHCO3, 2.6 mM CaCl2, 5.4 mM glucose; pH 7.4). Test compounds were added to a final concentration of 10 nM to the cuvette into 200 μl of PRP 5 min before adding the sodium propionate solution, incubated with constant stirring using a magnetic stirrer (800 rpm, 37 °C). NHE-1 inhibitors zoniporide, rimeporide, amiloride were used as reference drugs. Assays were run in 6 independent series.

intraocular pressure = assay: Intraocular pressure studies in outbred rats (TonoVet); type: in vivo
Protocol: The experiments were carried out on 75 adult outbred rats of both sexes, which were kept in standard cages at a temperature of 25 °C and a standard light regime. Animals were randomly assigned to the control and experimental groups (n = 5). Before the start of the experiment, the rats had free access to food and water. Intraocular pressure (IOP) was measured with a TonoVet device (Finland)[44] which measures IOP with a short touch of a small disposable tip in the center of the cornea, no corneal anesthesia is required. The study was carried out according to the published method. One drop (50 μl) of a test 0.4% solution of the compound was instilled into the right eye, and deionized water was added to the left eye. IOP was measured in both eyes. The left eye, in turn, serves to assess the possible systemic exposure of the test compounds. […] IOP-lowering activity was assessed as the maximum decrease in IOP from the initial values. At 9:00 AM, baseline IOP was measured in animals of all groups. Experiments were run in 5 independent replicates.

T1 sequence (P23791 whole entry): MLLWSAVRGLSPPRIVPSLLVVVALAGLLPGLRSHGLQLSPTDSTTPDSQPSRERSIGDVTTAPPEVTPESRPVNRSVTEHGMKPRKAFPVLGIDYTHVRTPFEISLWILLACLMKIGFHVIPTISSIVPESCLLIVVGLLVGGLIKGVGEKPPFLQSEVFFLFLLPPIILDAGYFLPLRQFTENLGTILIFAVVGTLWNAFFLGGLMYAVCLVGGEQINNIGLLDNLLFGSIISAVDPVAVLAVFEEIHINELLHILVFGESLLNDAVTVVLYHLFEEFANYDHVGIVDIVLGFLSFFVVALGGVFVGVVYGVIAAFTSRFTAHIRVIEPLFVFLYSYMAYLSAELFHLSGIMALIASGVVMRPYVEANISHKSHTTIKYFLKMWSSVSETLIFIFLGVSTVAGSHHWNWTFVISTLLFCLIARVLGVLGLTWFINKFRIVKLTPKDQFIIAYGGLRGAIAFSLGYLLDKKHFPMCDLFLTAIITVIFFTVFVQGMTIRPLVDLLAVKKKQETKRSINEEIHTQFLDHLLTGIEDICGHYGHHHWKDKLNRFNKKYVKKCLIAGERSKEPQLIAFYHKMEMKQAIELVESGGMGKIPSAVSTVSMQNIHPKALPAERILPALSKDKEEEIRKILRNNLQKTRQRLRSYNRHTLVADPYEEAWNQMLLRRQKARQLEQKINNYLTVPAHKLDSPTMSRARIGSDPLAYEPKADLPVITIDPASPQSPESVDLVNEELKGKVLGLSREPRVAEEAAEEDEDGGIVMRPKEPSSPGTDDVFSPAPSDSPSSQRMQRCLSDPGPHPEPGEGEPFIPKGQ

inhibition at 0.01 µM (NHE-1; 10 nM, rabbit platelet-rich plasma, decimal commas, read-out: NHE-1 inhibition at 10 nM, m ± SD, n = 6 (%)): 57.8%
NHE-1 inhibitory activity (in words) (NHE-1; compared with reference drugs): more potent and comparable to zoniporide
Structure (SMILES): Cn1c(=O)n(Cc2nnc(N)[nH]2)c(=O)c2ccccc21 [Compound 3e, 3-[(5-Amino-4H-1,2,4-triazol-3-yl)methyl]-1-methylquinazoline-2,4(1H,3H)-dione]
effect on cell viability [1]: absence of a statistically significant effect on cell viability
CC50 at 24 h [2]: 138 µM
inhibition of the synthesis of nitric oxide [3]: statistically significantly inhibit
IOP-lowering effect size (intraocular pressure; compared with zoniporide and timolol): negligible
IOP-lowering activity (intraocular pressure; one drop (50 μl) of 0.4% solution instilled): statistically significant activity
